Data taken from article PMC4278898 (PLoS ONE, 2014).
“And” between values parts separate entries of the source, which are not always exact repeats. Equal entries are not always repeated. “Also recorded” adds a separate entry of the source. Where two headings read alike, the source gives them in different places.

Columns and labels:
TZM-bl cells [1] = test: Cytotoxicity assay (resazurin fluorometric method), TZM-bl cells; assay type: cell-based, human
HeLa cells = test: Cytotoxicity assay (resazurin fluorometric method), HeLa cells; assay type: cell-based, human
PBMC cells = test: Cytotoxicity assay (resazurin fluorometric method), PBMC cells; assay type: cell-based, human
H9 cells = test: Cytotoxicity assay (resazurin fluorometric method), H9 cells; assay type: cell-based, human
HIV-1 BaL [2] = test: Anti-HIV activity in infected TZM-bl cells (luciferase); assay type: cell-based; details: for anti-HIV activity compared with the vehicle control (HIV-1 BaL, TZM-bl): concentration not stated (range 0.01–100 µM)
HIV-1 MN [3] = test: Anti-HIV activity in H9 cells, HIV-1 MN (p24 ELISA); assay type: cell-based; details: for inhibition of infection / anti-HIV activity, H9 cells, HIV-1 MN: concentration not given
Procedure: (§1) HIV-1 infection of H9 cells was performed as described by Gurgo et al. as follows: H9 cells were seeded at 1×10^5 cell/mL into a 24 well plate. […] After 48 hours of incubation, the supernatant was collected and frozen at −80°C. ELISA was performed to detect p24, and the cytotoxicity assay was done using the resazurin fluorometric method, as described previously.
(§2) The HIV-1 p24 Antigen ELISA 2.0 Kit (ZeptoMetrix Corporation, Bufalo, NY) was used to monitor and determine the titer of HIV-1-based lentiviral samples, as described by Gonçalves et al.. For each sample (n = 9), a 225 µL volume was treated with 25 µL of lysing buffer. An ELISA array plate was washed three times with 300 µL/well of wash buffer in a microplate washer (MultiWash III, TriContinent, Grass Valley, CA), and 200 µL/well of each treated samples was transferred to the plate. The plate was incubated at 37°C for 3 hours, then washed six times, incubated for 1 hour with 100 µL/well of HIV-1 p24 detector antibody, washed six more times, and incubated 30 min at room temperature with 100 µL/well of substrate. The reaction was stopped by addition of stop solution (100 µL/well). The absorbance was determined using a microplate reader (SpectraMax M5, Molecular Devices, Sunnyvale, CA) at 450 nm, and the samples were calibrated against the HIV-1 p24 standard curve, generated from a series of standards loaded on the same plate.

HIV-1 89.6 [4] = test: Anti-HIV activity in H9 cells, HIV-1 89.6 (p24 ELISA); assay type: cell-based; details: for inhibition of infection / anti-HIV activity, H9 cells, HIV-1 89.6: p24 ELISA, concentration not given
Procedure: as §1, §2

HIV-1 MN [5] = test: Anti-HIV activity in PBMC, HIV-1 MN (p24 ELISA); assay type: cell-based; details: for anti-HIV activity, PBMC cells, HIV-1 MN: concentration not given
HIV-1 89.6 [6] = test: Anti-HIV activity in PBMC, HIV-1 89.6 (p24 ELISA); assay type: cell-based; details: for IC50: Human immunodeficiency virus 1, HIV-1 89.6, p24 ELISA; for anti-HIV activity, PBMC cells, HIV-1 89.6: p24 ELISA, concentration not given
Procedure: The viability of the cells was assessed by the resazurin fluometric method as describe previously. After incubation, the supernatant from each well was collected and stored at -80°C for performance of p24 ELISA.
as §2

[7] = Cytotoxicity tests on TZM-bl, HeLa, PBMC and H9 cells (summary statements); assay type: cell-based, human; details: human, TZM-bl, HeLa, PBMC, H9; for viability at 24 h: at concentrations between 20 µM–60 µM, read-out: cell viability
Procedure: (§3) The in vitro cytotoxic effect of each of the flavonoids was determined by a resazurin fluorometric method (Cell Titer Blue Viability Assay, Promega Corp, Madison, WI), as described by O'Brien et al. [27]. TZM-bl and HeLa adherent cells were each separately seeded (1×10^5 cell/mL) into a 96 well plate (Greiner Bio-One North America, Inc Monroe, NC, USA). After 24 hours, their morphology was observed under an inverted microscope. The experimental natural compounds were then added to the cultured cells (n = 9) plates, and incubated for 24 hours. The cells were washed with pre-warmed PBS (Lonza Walkersville, Inc. Walkersville, MD) and the medium was replaced with medium pre-warmed to 37°C. Resazurin was added, and the cells were incubated for 3.5 hours. […] The cytotoxic effect of the three flavonoids on H9 and PBMC cells was determined using the same protocol.

[8] = test system: TZM-bl, HeLa, PBMC, and H9 cells; test: as above; assay type: cell-based, human; details: positive control AZT 60 µM
Procedure: as §3

TZM-bl cells [9] = test: Cell viability in the dual-chamber model (resazurin); details: resazurin method
Procedure: The in vitro cytotoxic effect of each of the flavonoids was determined by a resazurin fluorometric method (Cell Titer Blue Viability Assay, Promega Corp, Madison, WI), as described by O'Brien et al. [27]. TZM-bl and HeLa adherent cells were each separately seeded (1×10^5 cell/mL) into a 96 well plate (Greiner Bio-One North America, Inc Monroe, NC, USA). After 24 hours, their morphology was observed under an inverted microscope. The experimental natural compounds were then added to the cultured cells (n = 9) plates, and incubated for 24 hours. The cells were washed with pre-warmed PBS (Lonza Walkersville, Inc. Walkersville, MD) and the medium was replaced with medium pre-warmed to 37°C. Resazurin was added, and the cells were incubated for 3.5 hours.
Transwell assay inserts with 8 µM diameter pores and 0.3 cm^2 of culture surface (Greiner Bio-One, Monroe, NC,) were positioned in the wells of a 24-well plate. Then 1×10^4 HeLa cells were seeded into each transwell insert/apical chamber (using DMEM with 10% FBS). […] To assess confluence, the Trans Epithelial Electric Resistance (TEER) (described by Arien et al. [33]) of each HeLa cell layer was measured with a Millicell-ERS Volt-Ohm Meter (Millipore, Bedford, MA) before and after flavonoids treatments. Cell layer confluence in the transwell inserts was measured daily, until the optimal TEER (>150 Ohm/cm^2) was reached on day 4. […]

HeLa cell layer = test: Trans Epithelial Electric Resistance (TEER) of HeLa cell layer in dual-chamber model; details: dual-chamber transwell insert
Procedure: (§4) Transwell assay inserts with 8 µM diameter pores and 0.3 cm^2 of culture surface (Greiner Bio-One, Monroe, NC,) were positioned in the wells of a 24-well plate. Then 1×10^4 HeLa cells were seeded into each transwell insert/apical chamber (using DMEM with 10% FBS). TZM-bl cells (1×10^5) were seeded into the basal chambers below the inserts, and the plates were incubated at 37°C in humid air containing 5% CO2. To assess confluence, the Trans Epithelial Electric Resistance (TEER) (described by Arien et al. [33]) of each HeLa cell layer was measured with a Millicell-ERS Volt-Ohm Meter (Millipore, Bedford, MA) before and after flavonoids treatments. Cell layer confluence in the transwell inserts was measured daily, until the optimal TEER (>150 Ohm/cm^2) was reached on day 4. On day 4, the media in the basal chamber and the insert was replaced with new pre-warmed media. […] The plate was incubated at 37°C, in humid air containing 5% CO2.

HIV-1 BaL [10] = test: Microbicide activity in the dual-chamber model (HeLa apical, TZM-bl basal; luciferase); details: Human immunodeficiency virus 1, BAL
Procedure: as §4
The experiments were performed in triplicate and repeated three different times.

[11] = TZM-bl cells, 24 hours treatment, concentration that kills 50% of the cells
[12] = Human immunodeficiency virus 1, BAL, TZM-bl
[13] = Human immunodeficiency virus 1, H9 cells, HIV-1 MN, p24 ELISA, read-out: IC50
[14] = Human immunodeficiency virus 1, H9 cells, HIV-1 89.6, p24 ELISA, read-out: IC50
[15] = Human immunodeficiency virus 1, PBMC cells, HIV-1 MN, p24 ELISA, read-out: IC50
[16] = Human immunodeficiency virus 1, H9

| SMILES | LD50 (TZM-bl cells [1]; [11]) | LD50 (HeLa cells; HeLa cells, 24 hours treatment) [µM] | LD50 (PBMC cells; PBMC cells) [µM] | LD50 (H9 cells; H9 cells) [µM] | IC50 (HIV-1 BaL [2]; [12]) [µM] | anti-HIV activity compared with the vehicle control (HIV-1 BaL, TZM-bl) (HIV-1 BaL [2]) [%] | IC50 (HIV-1 MN [3]; [13]) [µM] | inhibition of infection / anti-HIV activity, H9 cells, HIV-1 MN (HIV-1 MN [3]; p24 ELISA) [%] | IC50 (HIV-1 89.6 [4]; [14]) [µM] | inhibition of infection / anti-HIV activity, H9 cells, HIV-1 89.6 (HIV-1 89.6 [4]) [%] | IC50 (HIV-1 MN [5]; [15]) [µM] | anti-HIV activity, PBMC cells, HIV-1 MN (HIV-1 MN [5]; p24 ELISA) [%] | IC50 (HIV-1 89.6 [6]; PBMC cells) [µM] | anti-HIV activity, PBMC cells, HIV-1 89.6 (HIV-1 89.6 [6]) | other results |
| --- | --- | --- | --- | --- | --- | --- | --- | --- | --- | --- | --- | --- | --- | --- | --- |
| O=c1c(O)c(-c2ccc(O)c(O)c2)oc2cc(O)cc(O)c12 [Quercetin] | 119.23 µM | 78.20 | 813.57 | 905.76 | 89 | 39 | 38.8 | ≥ 64 | 29.8 | ≥ 64 | 31.7 | 45 | 39.3 | 59% | viability at 24 h [7]: ≥ 85% |
| O=C1C[C@@H](c2ccccc2)Oc2cc(O)cc(O)c21 [Pinocembrin] |  |  |  |  |  | 28 | 67.2 | ≥ 60 | 42.2 | ≥ 60 | 57.7 | 67 | 53.2 | 51% | LD50 (TZM-bl cells [1]; human, 24 h): 67.94 µM; LD50 (HeLa cells; human, 24 h): 99.52 µM; LD50 (PBMC cells; human, 24 h): 788.23 µM; LD50 (H9 cells; human, 24 h): 805.76 µM; IC50 (HIV-1 BaL [2]; Human immunodeficiency virus 1, TZM-bl cells, HIV-1 BaL, MOI = 1, read-out: IC50): 347 µM; viability at 24 h ([7]; PBMC and H9 cells): ≥ 85% |
| Cc1cn([C@H]2C[C@H](N=[N+]=[N-])[C@@H](CO)O2)c(=O)[nH]c1=O [AZT, Zidovudine, reference compound] |  |  |  |  |  |  |  |  |  |  |  |  |  |  | inhibition at 60 µM (HIV-1 BaL [2]; Human immunodeficiency virus 1, BAL, TZM-bl, read-out: inhibition of HIV infection by positive control (HIV-1 BaL, TZM-bl)): ≥ 90%; effect on cell growth [8]: did not affect the cell growth |
| O=c1c(O)c(-c2cc(O)c(O)c(O)c2)oc2cc(O)cc(O)c12 [Myricetin] | 1214.92 µM and 1214.72 µM | 804.94 | 1159.26 | 1059.09 | 20.4 |  |  |  |  |  |  |  |  | more than 80% | inhibition at 100 µM (HIV-1 BaL [2]; Human immunodeficiency virus 1, BAL, TZM-bl, read-out: inhibition of HIV-1 BaL infection in TZM-bl cells): > 87%; anti-HIV activity greater compared to Pinocembrin, HIV-1 MN, H9 (HIV-1 MN [3]; H9 cells): ~2.9 x; anti-HIV activity greater than that of Quercetin, HIV-1 MN, H9 (HIV-1 MN [3]; H9 cells): approximately 1.7 x; IC50 (HIV-1 MN [3]; [16]): 22.9 µM; anti-HIV activity greater than for Pinocembrin, HIV-1 89.6, H9 (HIV-1 89.6 [4]; H9 cells): 23.9 x; anti-HIV activity greater than for Quercetin, HIV-1 89.6, H9 (HIV-1 89.6 [4]; H9 cells): 16.9 x; IC50 (HIV-1 89.6 [4]; [16]): 1.76 µM; IC50 (HIV-1 MN [5]; Human immunodeficiency virus 1, PBMC): 4.49 µM; inhibition at 100 µM (HIV-1 MN [5]; Human immunodeficiency virus 1, PBMC, read-out: inhibition of HIV-1 MN infection in PBMC cells): 86%; inhibition at 100 µM (HIV-1 89.6 [6]; Human immunodeficiency virus 1, PBMC, read-out: inhibition of HIV-1 89.6 infection in PBMC cells): 85%; x higher than Pinocembrin, HIV-1 89.6, PBMC (HIV-1 89.6 [6]; PBMC cells): 16.4 x; x higher than Quercetin, HIV-1 89.6, PBMC (HIV-1 89.6 [6]; PBMC cells): 12.3 x; viability at 24 h, 100 µM ([7]; PBMC and H9 cells, at 100 µM concentration, read-out: cell viability compared with the negative control (only cells)): ≥ 85%; cell viability in dual-chamber model versus negative control (only cells) (TZM-bl cells [9]): no statistically significant difference; also recorded: did not show a statistically significant difference on cell viability; TEER of HeLa cell layer before and after flavonoid treatment (HeLa cell layer): 208 Ohm/cm^2; IC50 (HIV-1 BaL [10]; read-out: IC50, HIV-1 BaL infection in dual-chamber system): 19.5 µM; inhibition at 100 µM (HIV-1 BaL [10]; read-out: inhibition of HIV-1 BaL infection in dual-chamber system): > 88% |
